From patent US20200045956A1, “POLYPEPTIDE SPERM STABILISER FOR SEMEN USED IN ARTIFICIAL INSEMINATION” (UNIVERSIDAD DE LA FRONTERA, priority 2017, published 2020) come the findings set out here.

The test system of the experiment is porcine spermatozoa. In words: Progressive motility / viability of gametes incubated in fertilizing solution with FB-sp (CASA method, optical microscopy). Type of experiment: cell-based. On the procedure:
A test of the progressive motility of gametes incubated in fertilizing solution added with the FB-sp bio-stabiliser polypeptide was performed. Progressive gametes are spermatozoa that have normal mobility capacity and are suitable for fertilizing.
It can be seen that the incubation of spermatozoa of porcine boars with FB-sp (●) (10 μM) preserves progressive motility up to 85% of spermatozoa for a period of 7 days, while the control (▪) without stabiliser decreases to a value of 70% on day 7, the difference increases over the days.

Regarding “RPGLPVFSPL (Spermatic biostabilizer FB-sp) [polypeptide sperm stabiliser of 10 amino acids: Arg, Pro, Gly, Leu, Pro, Val, Phe, Ser, Pro, Leu]”, the “progressive motility of spermatozoa preserved” value (FB-sp 10 μM, 17° C., period of 7 days, porcine boar spermatozoa) is reported as “up to 85%”. For the same sequence, the survival result (extender with FB-sp added, after 7 days) was “over 65%”.
